Data as given in patent US20240294531A1, “COVALENT HETEROCYCLES AND USES THEREOF” (Kumquat Biosciences Inc., priority 2022, published 2024).

What was measured:
[1] = Intrinsic reactivity assay; format: physicochemical; details: pH 7.4, 37° C., suitably protected Cys-OMe
Excerpt: Understanding of the intrinsic reactivity of electrophilic warheads with nucleophilic molecules is an important parameter influencing the stability of a compound in biological matrices. Lower intrinsic reactivity also mitigates the risk of covalent off-target reactivity. A common target residue for covalent drugs is cysteine, an amino acid containing a nucleophilic thiol side chain. The assay described here measures the rate of a compound forming a covalent bond with Boc-protected cysteine methyl ester or cysteine methyl ester that can be used as a surrogate for cysteines found on proteins.
Test compounds are prepared as 10 mM stock solutions in DMSO (Fisher cat #BP231-100). Compounds with molecular weight differing more than 3 Dalton are pooled and diluted to 5 μM in 100 mM potassium phosphate buffer, pH 7.4, containing 50 mM Boc-protected cysteine methyl ester (Combi-Blocks cat #QH-3424). Compounds incubated without Boc-protected cysteine methyl ester serve as controls. The reactions are incubated at 37° C., and reaction aliquots at different time intervals are sampled from the reaction and quenched with formic acid for subsequent LC-MS/MS analysis.
The LC-MS/MS analysis is done using a LC-40D×3 pump and SIL-40C×3 autosampler (Shimadzu) coupled to a QTRAP 6500+ (Sciex). Compounds are separated on a XBridge Premier BEH column (Waters). The sample run time is about 4 minutes per injection. The normalized peak area for each compound is extracted from the mass spectrometry raw files, and the data for each compound are plotted against time in Prism version 9.4 (GraphPad). Nonlinear regression using one-phase decay is used to estimate the rate of covalent bond formation with Boc-protected cysteine methyl ester or cysteine methyl ester and parent compound half-life (t½).

[2] = target: BTK C481S protein (Homo sapiens (Human), UniProt Q06187, C481S); assay: BTK C481S HTRF displacement assay; format: binding; details: 1-hour incubation
Method in brief: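 Tracer displacement read by HTRF after 1 hour at room temperature: GST-BTK C481S 2-659, 50 nM tracer 239 (Kd 54 nM), anti-GST antibody, compound in six four-fold doses from 5 μM. Percent inhibition versus DMSO fitted (bottom 0, top 100) for IC50, converted to KI via Cheng-Prusoff.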

[3] = target: T1, BTK wildtype protein (Homo sapiens (Human), UniProt Q06187); assay: BTK wildtype HTRF displacement assay; format: binding; details: 1-hour incubation; read-out: BTK (wt) IC50
Method in brief: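 Tracer-displacement HTRF format: compound and tracer 239 compete at the BTK active site, detected via anti-GST-Tb on GST-tagged full-length enzyme. One-hour room-temperature incubation; compounds dosed at six four-fold steps down from 5 μM. Percent inhibition versus DMSO gives IC50 by constrained four-parameter logistic fit.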
Target sequence in this assay (Q06187 2-659): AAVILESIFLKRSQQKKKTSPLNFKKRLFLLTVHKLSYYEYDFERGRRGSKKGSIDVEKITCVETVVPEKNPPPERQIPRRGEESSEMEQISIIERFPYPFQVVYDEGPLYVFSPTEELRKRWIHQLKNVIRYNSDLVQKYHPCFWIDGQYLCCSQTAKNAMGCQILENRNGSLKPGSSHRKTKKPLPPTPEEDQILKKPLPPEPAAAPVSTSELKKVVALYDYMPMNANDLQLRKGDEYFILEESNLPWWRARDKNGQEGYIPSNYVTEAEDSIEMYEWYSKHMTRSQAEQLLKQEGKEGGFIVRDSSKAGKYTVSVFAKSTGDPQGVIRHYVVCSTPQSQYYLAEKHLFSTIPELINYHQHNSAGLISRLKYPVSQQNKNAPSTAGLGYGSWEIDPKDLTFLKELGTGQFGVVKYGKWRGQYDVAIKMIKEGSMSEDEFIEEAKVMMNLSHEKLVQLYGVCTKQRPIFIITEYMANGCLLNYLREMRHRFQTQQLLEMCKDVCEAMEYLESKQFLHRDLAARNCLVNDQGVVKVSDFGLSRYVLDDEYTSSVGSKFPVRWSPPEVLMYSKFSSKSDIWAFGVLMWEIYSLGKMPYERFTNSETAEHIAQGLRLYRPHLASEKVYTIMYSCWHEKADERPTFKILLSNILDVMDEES

[4] = target: MGLL (Homo sapiens (Human), UniProt Q99685, K36A/L169S/L176S); assay: MGLL compound modification assay (intact protein LC-MS); format: binding; details: at 4 hours; compound concentration of 3 μM
Experimental: Test compounds were prepared as 10 mM stock solutions in DMSO (Fisher cat #BP231-100). Human recombinant MGLL protein 1-303 containing K36A, L169S, L176S amino acid substitutions were produced at in house. On the day of the assay, MGLL protein was diluted to 2 μM in assay buffer (20 mM Hepes, pH 7.5, 150 mM NaCl, 1 mM MgCl2, 1 mM DTT). For testing MGLL modification, compounds were diluted to 50× final test concentration in DMSO in 96-well storage plates. […] of the diluted 50× compounds were added to appropriate wells in the PCR plate (Fisher cat #AB-0800). 49 μL of the stock protein solution was added to each well of the 96-well PCR plate to form a mixture. The plate was sealed well with aluminum plate seal and stored in a drawer at room temperature. […]
The extent of covalent modification of MGLL proteins was determined by liquid chromatography electrospray mass spectrometry analysis of the intact proteins using a Thermo Q-Exactive Plus mass spectrometer. […] The recorded protein mass spectrum was deconvoluted from the raw data file using Protein Deconvolution v4.0 (Thermo). […]
Certain compounds disclosed herein are expected to covalently modify MGLL protein when assessed using the assay described above by at least 1%, such as by at least 5%, 10%, 20%, 30%, 40%, or at least 50%.

[5] = target: T1, BTK wildtype protein; assay: Kinact/KI determination for BTK protein inhibitors (Kobs); format: binding
Experimental: Test compounds were prepared as 10 mM stock solutions in DMSO (Fisher cat #BP231-100). Human recombinant BTK wildtype protein 393-659 or BTK C481S protein 393-659 was produced in house or purchased from Saromics Biostructures AB (Lund, Sweden). BTK protein was diluted to 1 μM in buffer (20 mM Hepes, pH 7.5, 150 mM NaCl, 1 mM MgCl2, 1 mM DTT). For testing BTK modification, compounds were diluted to 50× final test concentration in DMSO in 96-well storage plates. 1 μL of the diluted 50× compounds were added to appropriate wells in the PCR plate (Fisher cat #AB-0800). Increasing concentrations of compounds were added to separate wells, resulting in final assay compound concentrations of 3 μM, 10 μM, 30 μM and 100 μM. 49 μL of the stock protein solution was added to each well of the 96-well PCR plate. Reactions were mixed carefully. The plate was sealed well with aluminum plate seal and stored in a drawer at room temperature. After different incubation times, the reactions were quenched by adding 5 μL of 2% formic acid (Fisher cat #A117-50) in MilliQ H2O to each well followed by mixing with a pipette. The plate was then resealed with aluminum seal and stored until mass spectrometry analysis.
The extent of covalent modification of BTK proteins was determined by liquid chromatography electrospray mass spectrometry analysis of the intact proteins using a Thermo Q-Exactive Plus mass spectrometer. 20 μL of sample was injected onto a bioZen 3.6 μm Intact C4 column (Phenomenex cat #00B-4767-AN) placed in a column oven set to 40° C. and separated using a LC gradient from 20% to 60% solvent B. Solvent A was 0.1% formic acid and solvent B was 0.1% formic acid in acetonitrile. HESI source settings were set to 40, 5 and 1 for the sheath, auxiliary and sweep gas flow, respectively. The spray voltage was 4 kV, and the capillary temperature was 320° C. S-lens RF level was 50 and auxiliary gas heater temperature was set to 200° C. The mass spectrometry was acquired using a scan range from 650 to 1750 m/z using positive polarity at a mass resolution of 70,000, AGC target of 1e6 ions and maximum injection time of 250 ms. The recorded protein mass spectrum was deconvoluted from the raw data file using Protein Deconvolution v4.0 (Thermo). The protein mass, adduct masses and their corresponding peak intensities were exported to Excel (Microsoft). The peak intensities for the unmodified and modified protein were used to calculate the percent covalent modification of the BTK protein based on the following equation: % BTK protein modification=((BTK−compound)/(BTK)+(BTK−Compound))*100.
The Kinact/KI is a rate constant describing the efficiency of covalent bond formation resulting from the potency (KI) of the first reversible binding event and the maximum potential rate (Kinact) of inactivation. The percent […] protein modification was plotted as a function of time using Prism version 9.4.1 (GraphPad), and the observed rate of modification (Kobs), a first-order rate constant with units of inverse time, was estimated using nonlinear regression at each compound concentration. […] If Kobs is increasing with compound concentration, KI is higher than 3 μM. Kinact/KI can be estimated by plotting Kobs values against each compound concentration used in separate reactions. The Kobs values are fitted to determine Kinact and KI using the following equation, Kobs=(Kinact×[compound conc])/(KI+[compound conc]).
Target sequence in this assay (Q06187 393-659): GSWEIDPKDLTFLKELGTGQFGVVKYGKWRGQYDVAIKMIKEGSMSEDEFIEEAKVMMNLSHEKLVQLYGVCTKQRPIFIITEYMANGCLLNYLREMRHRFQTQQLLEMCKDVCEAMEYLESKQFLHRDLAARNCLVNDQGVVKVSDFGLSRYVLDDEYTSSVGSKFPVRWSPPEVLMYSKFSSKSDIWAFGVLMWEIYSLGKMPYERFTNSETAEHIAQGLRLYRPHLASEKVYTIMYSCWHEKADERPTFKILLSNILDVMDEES

Sequence of BTK C481S protein (Q06187 2-659 C481S): as the sequence (Q06187 2-659) above, with C480S counted along it
Sequence of MGLL (Q99685 whole entry K36A/L169S/L176S): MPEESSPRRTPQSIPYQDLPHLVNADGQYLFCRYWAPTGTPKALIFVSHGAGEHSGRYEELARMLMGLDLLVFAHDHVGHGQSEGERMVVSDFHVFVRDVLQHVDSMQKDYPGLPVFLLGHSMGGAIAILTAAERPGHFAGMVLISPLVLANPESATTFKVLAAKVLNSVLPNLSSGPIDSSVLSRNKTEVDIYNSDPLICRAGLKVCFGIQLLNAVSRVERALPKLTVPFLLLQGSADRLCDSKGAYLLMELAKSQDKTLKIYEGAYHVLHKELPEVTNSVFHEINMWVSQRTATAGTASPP

IC50 [2] [nM]	IC50 [3] [nM]	% MGLL protein modification [4]	SMILES	K (min^−1), intrinsic rate constant [1] [min⁻¹]	BTK (wt) Kobs [5]
–	–	–	CCN(CC)C(=O)n1cncn1	<0.0005	–
≤ 1000	≤ 1000	over 50%	CN(C(=O)n1cncn1)C1CCC(n2nc(-c3ccc(Oc4ccccc4)cc3)c3c(N)ncnc32)CC1 (stereo not drawn) [Compound 133, N-(4-(4-amino-3-(4-phenoxyphenyl)-1H-pyrazolo[3,4-d]pyrimidin-1-yl)cyclohexyl)-N-methyl-1H-1,2,4-triazole-1-carboxamide]	–	–
–	–	–	CC1CCCCN1C(=O)n1cncn1 (stereo not drawn)	<0.0005	–
≤ 1000	> 1000	–	NC(=O)c1c(-c2ccc(Oc3ccccc3)cc2)nn2c1NCCC2C1CCN1C(=O)n1cncn1 (stereo not drawn) [Compound 137, 7-(1-(1H-1,2,4-triazole-1-carbonyl)azetidin-2-yl)-2-(4-phenoxyphenyl)-4,5,6,7-tetrahydropyrazolo[1,5-a] pyrimidine-3-carboxamide]	–	132, 134, 136, 137, 138, 140, 150, 152, 153, 154, 155, M^−1 · s^−1
–	–	–	CCN(C(=O)n1cncn1)C1CC1	<0.0005	–
–	–	–	C=CC(=O)N(CC)C1CC1	0.0159	–
≤ 1000	≤ 1000	–	CN(C(=O)n1cncn1)C1CCCC(C2CCNc3c(C(N)=O)c(-c4ccc(Oc5ccccc5)cc4)nn32)C1 (stereo not drawn) [Compound 134, 7-(3-(N-methyl-1H-1,2,4-triazole-1-carboxamido)cyclohexyl)-2-(4-phenoxyphenyl)-4,5,6,7-tetrahydropyrazolo[1,5-a]pyrimidine-3-carboxamide]	–	132, 134, 136, 137, 138, 140, 150, 152, 153, 154, 155, M^−1 · s^−1
–	–	–	C=CC(=O)N1CCCCC1C (stereo not drawn)	0.0029	–
≤ 1000	≤ 1000	–	COc1ccc(F)cc1C(=O)NCc1ccc(-c2nn(C[C@@H]3C[C@@H](C)CCN3C(=O)n3cnnc3)c(N)c2C(N)=O)cc1 [Compound 264, 5-amino-3-(4-((5-fluoro-2-methoxybenzamido)methyl)phenyl)-1-(((2S,4S)-4-methyl-1-(4H-1,2,4-triazole-4-carbonyl)piperidin-2-yl)methyl)-1H-pyrazole-4-carboxamide]	–	248, 249, 250, 253, 254, 256, 259, 260, 261, 264, 265, M^−1 · s^−1
–	–	–	C=CC(=O)N(CC)CC	0.0012	–
≤ 1000	≤ 1000	–	COc1ccc(F)cc1C(=O)NCc1ccc(-c2nn(C3CCCC(CN(C)C(=O)n4cncn4)C3)c3ncnc(N)c23)cc1 (stereo not drawn) [Compound 260, N-((3-(4-amino-3-(4-((5-fluoro-2-methoxybenzamido)methyl)phenyl)-1H-pyrazolo[3,4-d]pyrimidin-1-yl)cyclohexyl)methyl)-N-methyl-1H-1,2,4-triazole-1-carboxamide]	–	248, 249, 250, 253, 254, 256, 259, 260, 261, 264, 265, M^−1 · s^−1
